The source of these data is PMC4849076, “New Cyclic Lipopeptides of the Iturin Class Produced by Saltern-Derived Bacillus sp. KCB14S006” (Marine Drugs, 2016).

For data set [1], the system named is Aspergillus flavus KCTC 6984. As to the kind of experiment: Antifungal assay (MIC), Aspergillus flavus. Type of data set: cell-based. As to conditions: for MIC: Aspergillus flavus, potato dextrose broth, 2% of overnight cultures, 28 °C, 72 h, lowest concentration preventing visible growth; for Antifungal activity compared with 3 and 4: A. flavus, from MIC. As to the method:
(§1) The following microorganisms were used as test strains in the assay; Aspergillus flavus KCTC 6984, Neurospora crassa KCTC 6079, Candida tropicalis KCTC 7830, Candida albicans KCTC 7678, Fusarium oxysporum f. sp. cucumerinum KCTC 6084, Alternaria brassicicola ATCC 96836 and Penicillium griseofulvum KCTC 6435. Potato dextrose broth (Difco Laboratories) was used for a test medium. For C. albicans and C. tropicalis, 100 μL of inoculum suspension of 10^5 spores/mL was plated into 96-well plates containing diluted test compounds, and the plates were incubated at 28 °C for 48 h. For A. flavus, N. crassa, F. oxysporum, A. brassicicola and P. griseofulvum, 100 μL of cell suspension containing 2% of overnight cultures in 96-well were incubated at 28 °C for 72 h. The MIC values were determined as the lowest concentration of each compound that prevented visible growth.

In data set [2] the test system is Neurospora crassa KCTC 6079. Description: Antifungal assay (MIC), Neurospora crassa. Format: cell-based. The settings on record: for MIC: Neurospora crassa, potato dextrose broth, 2% of overnight cultures, 28 °C, 72 h, lowest concentration preventing visible growth; for Antifungal activity compared with 3 and 4: N. crassa, from MIC. How it is done:
as §1

Data set [3] relates to Candida tropicalis KCTC 7830. As to the kind of experiment: Antifungal assay (MIC), Candida tropicalis. Type of data set: cell-based. As to conditions: 10^5 spores/mL, 28 °C, 48 h, lowest concentration preventing visible growth. As to the method: as §1
Data set [4] deals with Candida albicans KCTC 7678. As to the kind of experiment: Antifungal assay (MIC), Candida albicans. Type of data set: cell-based. As to conditions: for MIC: Candida albicans, potato dextrose broth, 10^5 spores/mL, 28 °C, 48 h, lowest concentration preventing visible growth; for Antifungal activity compared with 3 and 4: C. albicans, from MIC. How it is done: as §1
Data set [5] concerns Fusarium oxysporum f. sp. cucumerinum KCTC 6084. As to the kind of experiment: Antifungal assay (MIC), Fusarium oxysporum. Type of data set: cell-based. As to the method: as §1
In data set [6] the test system is Alternaria brassicicola ATCC 96836. Description: Antifungal assay (MIC), Alternaria brassicicola. Format: cell-based. The settings on record: 2% of overnight cultures, 28 °C, 72 h, lowest concentration preventing visible growth. How it is done:
as §1

In data set [7] the test system is Penicillium griseofulvum KCTC 6435. As to the kind of experiment: Antifungal assay (MIC), Penicillium griseofulvum. As to conditions: for MIC: Penicillium griseofulvum, potato dextrose broth, 2% of overnight cultures, 28 °C, 72 h, lowest concentration preventing visible growth; for Antifungal activity compared with 3 and 4: P. griseofulvum, from MIC. Format: cell-based. How it is done:
as §1

The nature of data set [8]: Cytotoxicity assay, HeLa. Type of data set: cell-based. As to conditions: human, HeLa cells, DMEM + 10% fetal bovine serum, 37 °C, WST-8, absorbance 450 nm, read-out: Cytotoxic activity, IC50. How it is done: (§2) The human cervix epidermoid carcinoma cell line HeLa was cultured at 37 °C in DMEM (Invitrogen/Life Technologies, Carlsbad, CA, USA), supplemented with 10% fetal bovine serum (Sigma-Aldrich, St. Louis, MO, USA). src^ts-NRK cells, rat kidney cells that were infected with ts25, a T-class mutant of Rous sarcoma virus Prague strain, were cultured at permissive temperature (32 °C) in MEM (Sigma-Aldrich), supplemented with 10% calf serum (PAA Laboratories, Pashing, Austria). Each cell line was seeded into a 96-well plate (HeLa, 4 × 10^3 cells/well; src^ts-NRK, 1 × 10^4 cells/well) and then exposed to test compounds. After 48 h incubation, cell proliferation was determined using a Cell Count Reagent SF (Nacalai Tesque). Briefly, a 1/10 volume of WST-8 solution was added to each well, and the plates were incubated at 37 °C for 1 h. Then, the absorbance at 450 nm was measured in a microplate reader.

A short description of data set [9]: Cytotoxicity assay, src^ts-NRK. Format: cell-based. The settings on record: rat, src^ts-NRK cells, MEM + 10% calf serum, 32 °C (permissive temperature), WST-8, absorbance 450 nm, read-out: Cytotoxic activity, IC50. As to the method: as §2
For orientation: Tetrazolium dyes change colour on reduction, which living cells bring about.

The target of data set [10] is T1, human recombinant IDO (Homo sapiens, UniProt P14902).
T1 construct: made in house; host or cells: E. coli
Description: Indoleamine 2,3-dioxygenase (IDO) inhibition assay. Type of data set: biochemical. As to the method: The enzymatic inhibition assay was performed with human recombinant IDO expressed in E. coli according to previously described method with some modifications. The reaction mixture (200 μL) contained 50 mM potassium phosphate buffer (pH 6.5), 20 mM ascorbic acid, 10 μM methylene blue, 200 μM L-Trp, 20 μg/mL catalase and a sample in 2 μL of DMSO. The samples were serially diluted […] from 50 to 0.1 μM. The reaction was started by the addition of IDO and continued at 37 °C for 60 min. After termination of the reaction by addition of 40 μL of 30% (w/v) trichloroacetic acid, the resulting mixtures were incubated at 60 °C for 15 min, followed by centrifugation at 2000 × g for 15 min. Finally, 125 μL of supernatant is added to 125 μL of p-dimethylaminobenzaldehyde (pDMAB) (2%, v/v) in acetic acid, and the absorbance at 480 nm was measured.

Data set [11] concerns MDA-MB-231. Set-up: method as in PMID 25974307. The settings on record: MDA-MB-231 breast cancer cells; cited from earlier work.
The subject of data set [12] is MCF-7. Set-up: method as in PMID 25974307. As to conditions: MCF-7 breast cancer cells; cited from earlier work.
Data set [13] relates to Akt signaling network. Also noted: method as in PMID 25974307. The settings on record: MDA-MB-231 and MCF-7 breast cancer cells; cited from earlier work.
[14] abbreviates: potato dextrose broth, 2% of overnight cultures, 28 °C, 72 h, lowest concentration preventing visible growth.

≈ marks a conversion by molar mass, not a printed value. Like-named read-outs stand apart in the source and are kept apart here. *1 amine or outer side, *2 acyl side, *3 side chain or, on linkers, in order; H or OH if unused. Where a SMILES comes first, the peptide text is derived from it. [ ]: non-standard residue; d: D form. X1 = CCC(C)CCCCCCCCCC[C@H](CC(=O)[*:2])N[*:1]; X2 = CC(C)CCCCCCCCCCC[C@H](CC(=O)[*:2])N[*:1]; Hyp = O=C(O)[C@@H]1C[C@@H](O)CN1

T1 sequence (P14902 whole entry): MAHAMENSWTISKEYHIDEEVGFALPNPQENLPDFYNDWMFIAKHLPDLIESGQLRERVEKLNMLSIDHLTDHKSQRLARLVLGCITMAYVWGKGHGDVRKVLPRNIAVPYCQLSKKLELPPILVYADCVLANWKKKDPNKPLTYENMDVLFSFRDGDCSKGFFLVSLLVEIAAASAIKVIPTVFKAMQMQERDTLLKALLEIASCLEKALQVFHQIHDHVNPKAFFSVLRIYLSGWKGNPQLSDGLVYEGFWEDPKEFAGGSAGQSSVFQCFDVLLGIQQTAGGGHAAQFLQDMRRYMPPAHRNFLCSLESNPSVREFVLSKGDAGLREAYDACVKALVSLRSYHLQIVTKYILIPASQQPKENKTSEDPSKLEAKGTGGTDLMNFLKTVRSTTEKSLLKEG

On to `C[C@@H]1[C@H](O)[C@@H](C)/C=C/C=C/C=C/C=C/C=C/C=C/C=C/[C@H](O[C@@H]2O[C@H](C)[C@@H](O)[C@H](N)[C@@H]2O)C[C@@H]2O[C@](O)(C[C@@H](O)C[C@@H](O)[C@H](O)CC[C@@H](O)C[C@@H](O)CC(=O)O[C@H]1C)C[C@H](O)[C@H]2C(=O)O` [Amphotericin B, reference compound], for which the MIC in data set [1] (KCTC6984, read-out: MIC) was 0.195 µg/mL (≈ 0.211 µM); in data set [2] (KCTC6079, read-out: MIC), 0.098 µg/mL (≈ 0.106 µM); in [3] (KCTC7830, potato dextrose broth, read-out: MIC), 0.781 µg/mL (≈ 0.845 µM); in [4] (KCTC7678, read-out: MIC) it was 0.098 µg/mL (≈ 0.106 µM); in data set [5] (KCTC6084, 72 h) it was 12.5 µg/mL (≈ 13.5 µM); in [6] (ATCC96836, potato dextrose broth, read-out: MIC) it was 0.391 µg/mL (≈ 0.423 µM). Moreover, the MIC in [7] (KCTC6435, read-out: MIC) turned out to be 3.12 µg/mL (≈ 3.38 µM).

Regarding `CC(C)CCCCCCCCCCC[C@@H]1CC(=O)N[C@@H](CC(N)=O)C(=O)N[C@H](Cc2ccc(O)cc2)C(=O)N[C@H](CC(N)=O)C(=O)N[C@@H](CCC(N)=O)C(=O)N2C[C@H](O)C[C@H]2C(=O)N[C@H](CC(N)=O)C(=O)N[C@@H](CO)C(=O)N1` [Compound 1, Iturin F1] (cyclo(N[dY][dN]Q[Hyp][dN]S[X2])), the “Antifungal activity compared with 3 and 4” value in [1] is “better activities than 3 and 4”; in data set [2], “better activities than 3 and 4”; in data set [4] it was “better activities than 3 and 4”; in [7] it was “better activities than 3 and 4”. The MIC in [1] stood at 3.125 µg/mL (≈ 2.84 µM); in data set [2], 6.25 µg/mL (≈ 5.68 µM); in data set [3] (potato dextrose broth) it was 6.25 µg/mL (≈ 5.68 µM); in data set [4], 6.25 µg/mL (≈ 5.68 µM); in [5] (setting [14]), 25 µg/mL (≈ 22.7 µM); in data set [6] (potato dextrose broth), 25 µg/mL (≈ 22.7 µM). Further, in [7], the MIC was determined as 3.125 µg/mL (≈ 2.84 µM). The IC50 at 48 h in [8] and in [9] was 8.9 µM in each case.

In the case of `CCC(C)CCCCCCCCCC[C@@H]1CC(=O)N[C@@H](CC(N)=O)C(=O)N[C@H](Cc2ccc(O)cc2)C(=O)N[C@H](CC(N)=O)C(=O)N[C@@H](CCC(N)=O)C(=O)N2C[C@H](O)C[C@H]2C(=O)N[C@H](CC(N)=O)C(=O)N[C@@H](CO)C(=O)N1` (stereo partly drawn) [Compound 2, Iturin F2] (cyclo(N[dY][dN]Q[Hyp][dN]S[X1])), the “Antifungal activity compared with 3 and 4” value in data set [1] is “better activities than 3 and 4”; in data set [2], “better activities than 3 and 4”; in [4], “better activities than 3 and 4”; in data set [7] it was “better activities than 3 and 4”. Further, the MIC in data set [1] turned out to be 3.125 µg/mL (≈ 2.84 µM); in [2] it was 6.25 µg/mL (≈ 5.68 µM); in data set [3] (potato dextrose broth) it was 6.25 µg/mL (≈ 5.68 µM); in [4] it was 6.25 µg/mL (≈ 5.68 µM); in [5] (setting [14]) it was 25 µg/mL (≈ 22.7 µM); in [6] (potato dextrose broth) it was 25 µg/mL (≈ 22.7 µM). Also, the MIC in data set [7] was determined as 3.125 µg/mL (≈ 2.84 µM). The IC50 at 48 h was 7.8 µM in data set [8] and 7.4 µM in [9].

For `CC(C)CCCCCCCCCCC[C@@H]1CC(=O)N[C@@H](CC(N)=O)C(=O)N[C@H](Cc2ccc(O)cc2)C(=O)N[C@H](CC(N)=O)C(=O)N[C@@H](CCC(N)=O)C(=O)N2CCC[C@H]2C(=O)N[C@H](CC(N)=O)C(=O)N[C@@H](CO)C(=O)N1` [Compound 3, Iturin A9] (cyclo(N[dY][dN]QP[dN]S[X2])), the minimal inhibitory concentration (MIC) was 25 µg/mL (≈ 23 µM) in data set [1]; 12.5 µg/mL (≈ 11.5 µM) in data set [2]; 6.25 µg/mL (≈ 5.76 µM) in data set [3] (potato dextrose broth); 12.5 µg/mL (≈ 11.5 µM) in data set [4]; 25 µg/mL (≈ 23 µM) in data set [5] (setting [14]); 25 µg/mL (≈ 23 µM) in data set [6] (potato dextrose broth). Moreover, the MIC in data set [7] is 6.25 µg/mL (≈ 5.76 µM). Moreover, the IC50 at 48 h came out at 4.6 µM in data set [8] and 5.2 µM in data set [9].

For the compound `CCC(C)CCCCCCCCCC[C@@H]1CC(=O)N[C@@H](CC(N)=O)C(=O)N[C@H](Cc2ccc(O)cc2)C(=O)N[C@H](CC(N)=O)C(=O)N[C@@H](CCC(N)=O)C(=O)N2CCC[C@H]2C(=O)N[C@H](CC(N)=O)C(=O)N[C@@H](CO)C(=O)N1` (stereo partly drawn) [Compound 4, Iturin A8] (cyclo(N[dY][dN]QP[dN]S[X1])), the MIC in data set [1] worked out at 12.5 µg/mL (≈ 11.5 µM); in data set [2], 12.5 µg/mL (≈ 11.5 µM); in [3] (potato dextrose broth) it was 6.25 µg/mL (≈ 5.76 µM); in data set [4] it was 12.5 µg/mL (≈ 11.5 µM); in data set [5] (setting [14]), 25 µg/mL (≈ 23 µM); in data set [6] (potato dextrose broth), 25 µg/mL (≈ 23 µM). In addition, the MIC in data set [7] worked out at 6.25 µg/mL (≈ 5.76 µM). In addition, the IC50 at 48 h was 5.6 µM in data set [8] and 9 µM in data set [9]. For the same compound, the IC50 in data set [10] (human recombinant IDO expressed in E. coli, 50 mM potassium phosphate pH 6.5, 200 μM L-Trp, 37 °C, 60 min, pDMAB, absorbance 480 nm, read-out: IDO inhibition, IC50) was found to be 5.5 µM. Further, the “IDO inhibitory activity (in words)” value in [10] (human recombinant IDO, pH 6.5, 200 μM L-Trp, 37 °C, 60 min, samples 0.1 to 50 μM) is “significant inhibitory activity”.

On to `CC1=CC(=O)c2ccccc2C1=O` [menadione, reference compound], for which, in data set [10], the IC50 is 0.64 µM.

On to iturin A, for which the Inhibition of proliferation entry in [11] and in data set [12] was “inhibits the proliferation” each time. Besides, the “Inhibition of Akt signaling network” value in data set [13] is “inhibiting the Akt signaling network”.

What is called MIC is the smallest concentration in the dilution series that meets the test's criterion for growth inhibition. The term IC50 denotes the midpoint of a concentration-inhibition curve.
